Key:
Format in all cases: in vivo
[1] = system: perennial ryegrass; assay: Perennial ryegrass turf quality field study, Pennsylvania 2004; settings: in vivo
Procedure: (§1) Turf tolerance studies were conducted in monoculture stands of perennial ryegrass and tall fescue. Replicated trials, containing a minimum of three replications and having individual plots ranging in size from 25 to 50 ft. sq (2.3 to 4.6 square meters), were initiated in the late spring when turf was actively growing. […] Natural rainfall and supplemental irrigation, fertilizer, fungicides and insecticides were used to maintain healthy turf throughout the study period. Turf tolerance evaluations were made weekly for 8 weeks after application. Evaluations compared treated and untreated plot areas and consisted of one or all of the following evaluations: 1) visual estimate of turf injury made on a 0 to 10 scale with 0 indicating no visible injury symptoms, 10 being dead turf and 3 or less being commercially acceptable; 2) visual estimate of turf color made on a 0 to 10 scale with 0 being brown to dead turf, 10 being a lush green turf of highest quality and 6.5 being commercially acceptable; 3) visual estimate of turf density made on a 0 to 100 scale with 0 being bare ground, 100 being a thick solid stand of highest quality and 90 percent density being commercially acceptable; 4) visual estimate of turf quality made on a 0 to 10 scale with 0 being brown to dead turf, 10 being a lush green turf of highest quality and 6.5 being commercially acceptable.

[2] = system: buckhorn plantain, Plantago lanceolata L. (PLALA); assay: Postemergent weed control field study, Pennsylvania 2004, PLALA; settings: g ai/Ha: penoxsulam 35, imazaquin 104, bispyribac-sodium 75, trifloxysulfuron-sodium 9.2, metsulfuron-methyl 10.4; for Percent Weed Control PLALA 29DAA: 29 Days After Application; for Percent Weed Control PLALA 56DAA: 56 Days After Application
Text: (§2) The ALS inhibiting herbicides are useful in controlling broadleaf weeds and sedges in turfgrass. They are particularly effective against most important weeds in this application, viz., white clover, Trifolium repens L. (TRFRE); buckhorn plantain, Plantago lanceolata L. (PLALA); dandelion, Taraxacum officinale (TAROF); broadleaf plantain, Plantago major L. (PLAMA); ground ivy, Glechoma hederacea L. (GLEHE); common lespedeza, Lespedeza striata (LESST); pennywort (dollarweed), Hydrocotyle spp (HYDSS); Virginia buttonweed, Diodia virginiana L. (DIQVI) English daisy, Bellis perennis L. (BELPE); annual bluegrass, Poa annua (POANN); and yellow nutsedge, Cypres esculentus L. (CYPES).
(§3) Field studies were conducted in established turfgrass sites containing a natural population of target broadleaf weeds. Replicated trials, containing a minimum of three replications and having individual plots ranging in size from 25 to 50 ft. sq (2.3 to 4.6 square meters), were initiated in the late spring when turf and weeds were actively growing. […] Applications were made in the early morning when dew was present. Natural rainfall and supplemental irrigation were used to maintain healthy turf and active weed growth throughout the study period. Control of each weed species in the study site was made at approximately 2, 4 and 8 weeks after treatment. Control was determined visually by comparing treated and untreated weeds and scored on a 0 to 100 percent scale where 0 corresponds to no control and 100 corresponds to complete kill.

[3] = system: annual bluegrass, Poa annua (POANN); assay: Postemergent weed control field study, Pennsylvania 2004, POANN; settings: g ai/Ha: penoxsulam 35, imazaquin 104, bispyribac-sodium 75, trifloxysulfuron-sodium 9.2, metsulfuron-methyl 10.4; for Percent Weed Control POANN 29DAA: 29 Days After Application; for Percent Weed Control POANN 56DAA: 56 Days After Application
Text: as §2
(§4) Field studies were conducted in established turfgrass sites containing a natural population of target broadleaf weeds. Replicated trials, containing a minimum of three replications and having individual plots ranging in size from 25 to 50 ft. sq (2.3 to 4.6 square meters), were initiated in the late spring when turf and weeds were actively growing. Granule treatments were uniformly applied to individual plots using a common hand-shaker method. Applications were made in the early morning when dew was present. Natural rainfall and supplemental irrigation were used to maintain healthy turf and active weed growth throughout the study period. Control of each weed species in the study site was made at approximately 2, 4 and 8 weeks after treatment. Control was determined visually by comparing treated and untreated weeds and scored on a 0 to 100 percent scale where 0 corresponds to no control and 100 corresponds to complete kill.

[4] = system: dandelion, Taraxacum officinale (TAROF); assay: Postemergent weed control field study, Pennsylvania 2004, TAROF; settings: Granule formulation, g ai/Ha: penoxsulam 35, imazaquin 104, bispyribac-sodium 75, trifloxysulfuron-sodium 9.2, metsulfuron-methyl 10.4; for Percent Weed Control TAROF 29DAA: 29 Days After Application; for Percent Weed Control TAROF 56DAA: 56 Days After Application
Text: as §2, §4

[5] = system: perennial ryegrass; assay: Turf tolerance field study, perennial ryegrass, Indiana 2004; settings: 21 Days After Treatment, g ai/Ha: penoxsulam 35, imazaquin 104, bispyribac-sodium 75, trifloxysulfuron-sodium 9.2, metsulfuron-methyl 10.4; for Color: 0 = brown to dead turf, 10 = lush green; for Injury: 0 = no visible injury, 10 = dead turf
Procedure: as §1

[6] = system: white clover, Trifolium repens L. (TRFRE); assay: Postemergent weed control field study, Pennsylvania 2004, TRFRE; settings: g ai/Ha: penoxsulam 35, imazaquin 104, bispyribac-sodium 75, trifloxysulfuron-sodium 9.2, metsulfuron-methyl 10.4; for Percent Weed Control TRFRE 29DAA: 29 Days After Application; for Percent Weed Control TRFRE 56DAA: 56 Days After Application
Text: as §2, §3

[7] = system: dandelion, Taraxacum officinale (TAROF); assay: Postemergent weed control field study, Pennsylvania 2004, TAROF; settings: Liquid formulation, g ai/Ha: penoxsulam 35, imazaquin 104, bispyribac-sodium 75, trifloxysulfuron-sodium 9.2, metsulfuron-methyl 10.4; for Percent Weed Control TAROF 29DAA: 29 Days After Application; for Percent Weed Control TAROF 56DAA: 56 Days After Application
[8] = system: tall fescue; assay: Turf tolerance field study, tall fescue, Indiana 2004; settings: 14 Days After Treatment, g ai/Ha: penoxsulam 35, imazaquin 104, bispyribac-sodium 75, trifloxysulfuron-sodium 9.2, metsulfuron-methyl 10.4; for Color: 0 = brown to dead turf, 10 = lush green; for Injury: 0 = no visible injury, 10 = dead turf
Procedure: as §1

Row | Compound | Turf Quality 36 DAA [1] | Percent Weed Control PLALA 29DAA ([2]; Granule formulation) | Percent Weed Control PLALA 56DAA ([2]; Granule formulation) | Percent Weed Control PLALA 29DAA ([2]; Liquid formulation) | Percent Weed Control PLALA 56DAA ([2]; Liquid formulation) | Percent Weed Control POANN 29DAA ([3]; Granule formulation) | Percent Weed Control POANN 56DAA ([3]; Granule formulation) | Percent Weed Control POANN 29DAA ([3]; Liquid formulation) | Percent Weed Control POANN 56DAA ([3]; Liquid formulation) | Percent Weed Control TAROF 29DAA [4] | Percent Weed Control TAROF 56DAA [4] | Color ([5]; Granule formulation) | Injury ([5]; Granule formulation) | Color ([5]; Liquid formulation) | Injury ([5]; Liquid formulation) | Percent Weed Control TRFRE 29DAA ([6]; Granule formulation) | Percent Weed Control TRFRE 56DAA ([6]; Granule formulation) | Percent Weed Control TRFRE 29DAA ([6]; Liquid formulation) | Percent Weed Control TRFRE 56DAA ([6]; Liquid formulation) | Percent Weed Control TAROF 29DAA [7] | also measured
1 | COC(=O)c1ccccc1S(=O)(=O)NC(=O)Nc1nc(C)nc(OC)n1 [Metsulfuron-methyl, metsulfuron-methyl] | 8.3 0 to 10 scale | 58.3% | 85.0% | 97.7% | 78.9% | 32.2% | 31.1% | 39.2% | 17.5% | 87.2% | 67.2% | 6.5 0-10 Scale | 4.5 0-10 Scale | 6.0 0-10 Scale | 6.0 0-10 Scale | 93.9% | 93.9% | 95.8% | 100.0% | 99.1% | Percent Weed Control TAROF 56DAA [7]: 97.4%; Color ([8]; Granule formulation): 8.8 0-10 Scale; Injury ([8]; Granule formulation): 0.8 0-10 Scale; Color ([8]; Liquid formulation): 6.8 0-10 Scale; Injury ([8]; Liquid formulation): 4.3 0-10 Scale
2 | COc1cnc(OC)n2nc(NS(=O)(=O)c3c(OCC(F)F)cccc3C(F)(F)F)nc12 [Penoxsulam, penoxsulam] | 10.0 0 to 10 scale | 73.3% | 43.3% | 41.7% | 70.6% | 0.0% | 13.7% | 4.4% | 31.1% | 57.8% | 34.4% | 8.3 0-10 Scale | 1.5 0-10 Scale | 6.5 0-10 Scale | 4.3 0-10 Scale | 98.3% | 83.9% | 100.0% | 98.7% | 44.4% | Percent Weed Control TAROF 56DAA [7]: 11.1%; Color ([8]; Granule formulation): 9.0 0-10 Scale; Injury ([8]; Granule formulation): 0.3 0-10 Scale; Color ([8]; Liquid formulation): 7.8 0-10 Scale; Injury ([8]; Liquid formulation): 3.0 0-10 Scale
